Earlier results as cited in US20250275937A1, “Methods For Reducing Negative Effects Of Alcohol Consumption” (Honed Life Sciences, LLC, priority 2018, published 2025).

Key:
[1] = system: acute alcohol (EtOH) intoxication; settings: rats
[2] = system: oxidative stress and liver fibrogenesis; settings: mice

| Action on acute EtOH-induced potentiation of GABA receptors (GABA receptors) | Compound | Counteracting acute alcohol (EtOH) intoxication and withdrawal signs (tolerance, increased anxiety, seizure susceptibility) [1] | Effect on oxidative stress and liver fibrogenesis [2] |
| --- | --- | --- | --- |
| antagonizing | O=C1c2c(O)cc(O)cc2O[C@H](c2cc(O)c(O)c(O)c2)[C@H]1O [DHM, dihydromyricetin] | highly effective |  |
|  | O=C(O)c1cc(C(=O)O)c2c(n1)C(=O)C(=O)c1cc(C(=O)O)[nH]c1-2 [PQQ, pyrroloquinoline quinone] |  | suppresses oxidative stress and liver fibrogenesis |
